Test results: article PMC3983375 (Journal of Medicinal Chemistry, 2014)

Columns and labels:
UCHL1 = UCHL1 (Homo sapiens, UniProt P09936); assay: biochemical
cathepsin K = cathepsin K (Homo sapiens, UniProt P43235); assay: biochemical
[1] = mouse
caspase 3 = caspase 3 (Homo sapiens, UniProt P42574); assay: biochemical
DEN1 = DEN1 (Homo sapiens, UniProt Q96LD8); assay: biochemical
USP2 = USP2 (Homo sapiens, UniProt O75604); assay: biochemical
USP7 = USP7 (Homo sapiens, UniProt Q93009); assay: biochemical
[2] = test system: SARS-CoV infected Vero E6 cells; type: cell-based
[3] = test system: SARS-CoV infected Vero E6 cells; conditions: read-out: EC50 (SARS-CoV antiviral); cited from earlier work
USP20 = USP20 (Homo sapiens, UniProt Q9Y2K6); assay: biochemical
Sequence of USP20 (Q9Y2K6 whole entry): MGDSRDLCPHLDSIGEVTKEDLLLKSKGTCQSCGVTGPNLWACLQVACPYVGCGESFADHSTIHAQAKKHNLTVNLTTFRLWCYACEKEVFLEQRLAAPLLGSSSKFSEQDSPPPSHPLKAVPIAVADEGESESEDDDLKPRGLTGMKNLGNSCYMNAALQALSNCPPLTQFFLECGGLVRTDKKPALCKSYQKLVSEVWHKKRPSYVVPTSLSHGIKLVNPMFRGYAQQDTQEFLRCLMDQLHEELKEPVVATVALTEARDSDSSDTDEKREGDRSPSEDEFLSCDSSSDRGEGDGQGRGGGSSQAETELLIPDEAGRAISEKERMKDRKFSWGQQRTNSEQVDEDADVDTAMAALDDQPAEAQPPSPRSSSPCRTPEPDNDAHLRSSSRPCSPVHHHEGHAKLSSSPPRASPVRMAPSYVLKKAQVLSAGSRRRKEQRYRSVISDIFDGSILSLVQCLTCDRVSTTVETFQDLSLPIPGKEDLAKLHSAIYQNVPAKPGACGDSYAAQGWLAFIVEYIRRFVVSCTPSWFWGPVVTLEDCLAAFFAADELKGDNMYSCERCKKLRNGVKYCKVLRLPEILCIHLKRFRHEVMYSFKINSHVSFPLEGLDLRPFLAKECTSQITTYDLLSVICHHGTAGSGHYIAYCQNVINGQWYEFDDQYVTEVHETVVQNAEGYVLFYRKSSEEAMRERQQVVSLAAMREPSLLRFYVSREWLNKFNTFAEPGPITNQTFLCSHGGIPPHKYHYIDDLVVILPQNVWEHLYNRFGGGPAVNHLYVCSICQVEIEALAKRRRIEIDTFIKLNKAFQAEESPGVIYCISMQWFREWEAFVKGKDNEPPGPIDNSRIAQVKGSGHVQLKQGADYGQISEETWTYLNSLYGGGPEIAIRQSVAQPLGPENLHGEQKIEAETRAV

Sequence of UCHL1 (P09936 whole entry): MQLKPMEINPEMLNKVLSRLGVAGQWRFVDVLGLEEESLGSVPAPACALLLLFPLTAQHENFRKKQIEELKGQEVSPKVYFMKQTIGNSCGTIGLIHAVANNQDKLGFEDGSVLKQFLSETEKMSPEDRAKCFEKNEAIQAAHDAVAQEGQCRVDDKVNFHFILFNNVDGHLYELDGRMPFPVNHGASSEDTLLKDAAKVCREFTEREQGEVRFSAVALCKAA
Sequence of caspase 3 (P42574 29-175): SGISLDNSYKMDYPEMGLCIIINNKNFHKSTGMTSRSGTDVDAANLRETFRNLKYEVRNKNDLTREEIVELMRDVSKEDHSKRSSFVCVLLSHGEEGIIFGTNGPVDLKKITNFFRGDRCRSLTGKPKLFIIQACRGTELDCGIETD
Sequence of caspase 3 (P42574 176-277): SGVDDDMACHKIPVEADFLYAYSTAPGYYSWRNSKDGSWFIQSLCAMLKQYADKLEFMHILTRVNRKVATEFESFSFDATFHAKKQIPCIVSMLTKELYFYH
Sequence of USP2 (O75604 whole entry): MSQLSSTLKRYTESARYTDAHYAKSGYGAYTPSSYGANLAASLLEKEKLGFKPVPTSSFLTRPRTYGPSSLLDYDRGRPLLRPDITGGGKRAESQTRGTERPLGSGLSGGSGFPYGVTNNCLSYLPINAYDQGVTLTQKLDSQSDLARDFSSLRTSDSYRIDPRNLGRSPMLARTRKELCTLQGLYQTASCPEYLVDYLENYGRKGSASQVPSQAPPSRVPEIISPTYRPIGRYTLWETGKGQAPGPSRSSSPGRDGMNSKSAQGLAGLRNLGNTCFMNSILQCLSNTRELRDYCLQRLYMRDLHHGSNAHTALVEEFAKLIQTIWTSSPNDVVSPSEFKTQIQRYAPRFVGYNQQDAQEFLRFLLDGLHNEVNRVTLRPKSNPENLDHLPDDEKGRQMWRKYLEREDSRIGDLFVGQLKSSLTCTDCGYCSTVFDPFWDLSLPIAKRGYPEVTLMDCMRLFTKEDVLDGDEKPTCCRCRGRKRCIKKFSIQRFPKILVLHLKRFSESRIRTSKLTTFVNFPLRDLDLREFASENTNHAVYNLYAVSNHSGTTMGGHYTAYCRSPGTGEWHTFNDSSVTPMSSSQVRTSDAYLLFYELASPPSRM
Sequence of cathepsin K (P43235 115-329): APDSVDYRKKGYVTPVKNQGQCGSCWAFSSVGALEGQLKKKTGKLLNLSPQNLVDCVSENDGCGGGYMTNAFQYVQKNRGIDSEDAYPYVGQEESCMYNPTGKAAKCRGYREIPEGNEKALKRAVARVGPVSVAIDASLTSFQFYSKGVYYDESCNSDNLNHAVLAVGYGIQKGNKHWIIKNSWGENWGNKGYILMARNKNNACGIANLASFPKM
Sequence of USP7 (Q93009 whole entry): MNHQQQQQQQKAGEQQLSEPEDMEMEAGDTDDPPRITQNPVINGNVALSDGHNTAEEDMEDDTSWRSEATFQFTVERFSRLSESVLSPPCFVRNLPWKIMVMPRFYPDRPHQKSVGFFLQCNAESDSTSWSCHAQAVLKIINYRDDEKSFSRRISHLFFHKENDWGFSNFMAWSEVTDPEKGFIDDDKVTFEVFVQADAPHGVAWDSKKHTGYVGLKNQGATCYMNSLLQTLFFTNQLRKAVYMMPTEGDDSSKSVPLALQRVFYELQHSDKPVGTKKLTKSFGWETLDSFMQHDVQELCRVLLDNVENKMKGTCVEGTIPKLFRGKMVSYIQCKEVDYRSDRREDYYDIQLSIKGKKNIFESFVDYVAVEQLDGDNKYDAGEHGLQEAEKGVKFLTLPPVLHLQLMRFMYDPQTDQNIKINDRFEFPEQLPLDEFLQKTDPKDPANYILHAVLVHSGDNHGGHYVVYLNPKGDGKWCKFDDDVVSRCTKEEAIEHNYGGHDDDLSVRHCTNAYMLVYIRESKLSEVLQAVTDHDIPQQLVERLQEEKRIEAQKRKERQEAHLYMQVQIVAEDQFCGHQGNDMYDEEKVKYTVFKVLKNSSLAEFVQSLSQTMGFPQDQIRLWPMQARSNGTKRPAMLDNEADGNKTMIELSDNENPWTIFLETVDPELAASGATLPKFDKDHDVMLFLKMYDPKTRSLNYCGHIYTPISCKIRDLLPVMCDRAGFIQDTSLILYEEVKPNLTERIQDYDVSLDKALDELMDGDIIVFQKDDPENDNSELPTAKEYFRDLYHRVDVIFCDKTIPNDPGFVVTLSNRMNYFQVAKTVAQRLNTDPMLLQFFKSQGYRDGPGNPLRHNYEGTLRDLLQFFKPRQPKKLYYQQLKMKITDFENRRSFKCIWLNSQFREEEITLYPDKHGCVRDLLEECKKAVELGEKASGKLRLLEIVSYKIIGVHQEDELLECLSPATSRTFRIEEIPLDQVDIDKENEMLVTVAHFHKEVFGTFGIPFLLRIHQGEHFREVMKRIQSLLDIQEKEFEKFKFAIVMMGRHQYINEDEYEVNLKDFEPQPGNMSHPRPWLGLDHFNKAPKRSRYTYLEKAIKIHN
Sequence of DEN1 (Q96LD8 whole entry): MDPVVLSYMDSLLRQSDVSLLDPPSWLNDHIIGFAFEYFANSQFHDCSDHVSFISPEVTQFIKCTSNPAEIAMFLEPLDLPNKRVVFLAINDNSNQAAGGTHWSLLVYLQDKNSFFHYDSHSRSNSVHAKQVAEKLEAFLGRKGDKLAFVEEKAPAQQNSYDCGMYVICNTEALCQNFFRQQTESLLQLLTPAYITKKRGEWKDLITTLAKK

CC(=O)Nc1cccc(CNC(=O)C2CCN([C@H](C)c3cccc4ccccc34)CC2)c1 [3e, (R)-N-(3-Acetamidobenzyl)-1-(1-(naphthalen-1-yl)ethyl)piperidine-4-carboxamide]
> 100 µM: IC50 (UCHL1) | IC50 (cathepsin K) | IC50 (caspase 3) | IC50 (DEN1)
4-5 fold: half-life longer than that of 15g [1]

C[C@H](c1cccc2ccccc12)N1CCC(C(=O)NCc2ccc(F)cc2)CC1 [3j, (R)-N-(4-Fluorobenzyl)-1-(1-(naphthalen-1-yl)ethyl)piperidine-4-carboxamide]
> 100 µM: IC50 (USP2) | IC50 (UCHL1) | IC50 (cathepsin K) | IC50 (USP7) | IC50 (caspase 3) | IC50 (DEN1)

C[C@H](c1cccc2ccccc12)N1CCC(C(=O)NCc2cccc(F)c2)CC1 [3k, (R)-N-(3-Fluorobenzyl)-1-(1-(naphthalen-1-yl)ethyl)piperidine-4-carboxamide]
> 100 µM: IC50 (USP2) | IC50 (UCHL1) | IC50 (cathepsin K) | IC50 (USP7) | IC50 (caspase 3) | IC50 (DEN1)
2 fold: improvement in antiviral activity compared to 15g [2]

COc1cc(CNC(=O)C2CCN([C@H](C)c3cccc4ccccc34)CC2)ccn1 [5c, (R)-N-((2-Methoxypyridin-4-yl)methyl)-1-(1-(naphthalen-1-yl)ethyl)piperidine-4-carboxamide]
4-5 fold: half-life longer than that of 15g [1]

C[C@H](c1cccc2ccccc12)N1CCC(C(=O)NCc2ccc3c(c2)OCO3)CC1 [15g, reference compound]
9.1 µM: EC50 [3]
> 100 µM: IC50 (USP2) | IC50 (UCHL1) | IC50 (cathepsin K) | IC50 (USP7) | IC50 (USP20) | IC50 (caspase 3) | IC50 (DEN1)
